Results from patent publication US20070088052A1, “Sulfonamide derivatives as 5ht7 receptor antagonists” (Aston University, priority 2003, published 2007).
Marks after values point to notes of the source that are not given here.

How the values were obtained:
5-HT7 receptor = target: T1, 5-HT7 receptor (Homo sapiens, UniProt P34969); experiment: Receptor binding assay, [3]H-5-CT; conditions: for 5HT-7 receptor binding data using [3]H-5-CT: stepwise screen from 10 μM, active samples diluted and re-screened, radioligand 25 pM, dropout < 35; for IC50: [3]H-5-CT binding
T1 construct: Tissues were homogenized in ice cold sucrose; from tissue; host or cells: unspecified tissue, membrane homogenate
Protocol: Receptor Binding Assay, ^[3]H-5-CT
The combinatorial library was screened using radiolabeled 5-carboxamidotryptamine, a selective 5-HT-7 agonist. Tissues were homogenized in ice cold sucrose (0.32 M, 25 ml) for 15 strokes at 500 rpm and centrifuged at 13000 rpm for 10 mins. The supernatant was re-centrifuged at 13000 rpm for 20 mins. The resulting pellet was re-dispersed to the required volume of buffer at 500 rpm and stored in aliquots at […].
Binding was achieved using radioligand 5-carboxamidotryptamine at 25 pM. The samples were incubated {with membranes (0.1 mg/ml)} in 20 mM Hepes, 1 mM EGTA, 5 mM MgCl2, 150 mM NaCl, at pH 6.5 for 2 hrs at RT and then centrifuged at 11000 rpm for 5 minutes. The membrane pellets were washed twice with water and the bound radioactivity was measured in a Packard Cobra Auto-gamma counter (B5005). All binding assays were carried out with SB-258719 as standard. Controls (no compound) were also added. All samples were made in duplicate and repeated twice. All compounds were initially screened for percentage inhibition at 10 μM. Samples showing an average inhibition of […] were diluted to 1 μM and re-screened and if active diluted again.

mice [1] = experiment: Tail suspension test; assay type: in vivo; conditions: interperitoneal 30 min prior, immobility over 5 minutes
Protocol: Male mice weighting 20-25 g were used preferentially. The were housed in plastic cages for at least 10 days prior to testing in a 12 hours light cycle with food and water freely available.
Animals were transported from the housing room to the testing area in their own cages and were allowed to adapt to the new environment for 1 hour before testing. Groups of 6 animals were treated with the test compounds or the vehicle by interperitoneal injection 30 min prior to testing. For the test the mice were suspended on the edge of a shelf 58 cm above a table top by adhesive tape, placed approximately 1 cm from the tip of the tail. The duration of immobility was recorded for a period of 5 minutes. Mice were considered immobile when they hang passively and the time was recorded.

mice [2] = experiment: Despair swim test (immobility time test); assay type: in vivo; conditions: immobility in 5 min test, drug one hour prior
Description: Despair Swim Test (Immobility Time Test)
This reflects a state of despair, which can be reduced by several agents, which are therapeutically effective in human depression. Antidepressant drugs have the effect of reducing the duration of immobility.
Mice were brought into the laboratory at least one day before the experiment and were housed in separate cages, with free access to food and water. The mice were individually forced to swim inside a vertical Plexiglas cylinder (height: 40 cm; diameter: 18 cm, containing 15 cm of water maintained at 30° C.). After 10 min in the water the mice were removed and allowed to dry in a heated enclosure (32° C.) before being returned to their home cages. They were again replaced in the cylinder 24 hrs later and the total duration of the immobility was measured during a 5 min test. Floating behaviour during this 5 min period was reproducible in different groups of mice. An animal was judged to be immobile whenever it remained floating passively in the water in a slightly hunched but upright position, its nose just above the surface. The test drug or the standard were administered one hour prior to testing.

T1 sequence (P34969 whole entry): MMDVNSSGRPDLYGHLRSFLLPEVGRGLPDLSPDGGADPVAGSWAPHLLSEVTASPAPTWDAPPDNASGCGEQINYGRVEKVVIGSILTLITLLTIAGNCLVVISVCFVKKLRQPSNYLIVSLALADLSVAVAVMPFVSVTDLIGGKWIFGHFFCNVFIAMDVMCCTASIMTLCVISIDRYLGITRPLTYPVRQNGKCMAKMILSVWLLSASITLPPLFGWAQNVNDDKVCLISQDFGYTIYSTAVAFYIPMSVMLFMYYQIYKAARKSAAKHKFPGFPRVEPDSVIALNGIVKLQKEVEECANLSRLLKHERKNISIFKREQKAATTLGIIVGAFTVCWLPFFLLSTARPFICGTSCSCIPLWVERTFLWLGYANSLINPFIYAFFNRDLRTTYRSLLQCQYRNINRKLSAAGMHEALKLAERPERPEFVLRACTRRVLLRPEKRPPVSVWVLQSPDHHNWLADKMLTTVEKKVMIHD

| SMILES | 5HT-7 receptor binding data using [3]H-5-CT (5-HT7 receptor) | other results |
| --- | --- | --- |
| Cc1cccc(S(=O)(=O)N(CCN(C)C)C(C)CCN2CCC(C)CC2)c1 (centres unmarked) [B9] | B9 * (1 micromolar) | – |
| COc1ccccc1N(C(C)CCN1CCC(C)CC1)S(=O)(=O)c1cccc(C)c1 (centres unmarked) [B16] | B16 ** (100 nM) | – |
| COc1cccc(N(C(C)CCN2CCC(C)CC2)S(=O)(=O)c2cccc(C)c2)c1 (centres unmarked) [B23] | B23 *** (10 nM) | – |
| COc1ccc(S(=O)(=O)N(c2ccc(Cl)cc2)C(C)CCN2CCC(C)CC2)cc1 (centres unmarked) [C6] | C6 ** (100 nM) | – |
| COc1ccc(S(=O)(=O)N(c2cccc3ccccc23)C(C)CCN2CCC(C)CC2)cc1 (centres unmarked) [C24] | C24 * (1 micromolar) | – |
| CC1CCN(CCC(C)N(Cc2ccccc2)S(=O)(=O)c2cccc3ccccc23)CC1 (centres unmarked) [D1] | D1 * (1 micromolar) | – |
| CC1CCN(CCC(C)N(c2ccccn2)S(=O)(=O)c2cccc3ccccc23)CC1 (centres unmarked) [D13] | D13 ** (100 nM) | – |
| COc1cccc(N(C(C)CCN2CCC(C)CC2)S(=O)(=O)c2cccc3ccccc23)c1 (centres unmarked) [D23] | D23 *** (10 nM) | IC50 (5-HT7 receptor): 34 nM |
| CC1CCN(CCC(C)N(Cc2ccccc2)S(=O)(=O)c2ccc3ccccc3c2)CC1 (centres unmarked) [E1] | E1 * (1 micromolar) | – |
| COCCN(C(C)CCN1CCC(C)CC1)S(=O)(=O)c1ccc2ccccc2c1 (centres unmarked) [E3] | E3 * (1 micromolar) | – |
| CCCCCCCCCCCCN(C(C)CCN1CCC(C)CC1)S(=O)(=O)Cc1ccccc1 (centres unmarked) [G10] | G10 * (1 micromolar) | – |
| CC(=O)c1ccc(N(C(C)CCN2CCC(C)CC2)S(=O)(=O)Cc2ccccc2)cc1 (centres unmarked) [G22] | G22 * (1 micromolar) | – |
| COc1cccc(N(C(C)CCN2CCC(C)CC2)S(=O)(=O)Cc2ccccc2)c1 (centres unmarked) [G23] | G23 *** (10 nM) | – |
| CC1CCN(CCC(C)N(c2cccc3ccccc23)S(=O)(=O)Cc2ccccc2)CC1 (centres unmarked) [G24] | G24 * (1 micromolar) | – |

Continued, in another order:

| 5HT-7 receptor binding data using [3]H-5-CT (5-HT7 receptor) | SMILES | other results |
| --- | --- | --- |
| I1 ** (100 nM) | CC1CCN(CCC(C)N(Cc2ccccc2)S(=O)(=O)c2cccc([N+](=O)[O-])c2)CC1 (centres unmarked) [I1] | – |
| I8 ** (100 nM) | CC1CCN(CCC(C)N(C)S(=O)(=O)c2cccc([N+](=O)[O-])c2)CC1 (centres unmarked) [I8] | – |
| I21 ** (100 nM) | CC1CCN(CCC(C)N(c2ccccc2)S(=O)(=O)c2cccc([N+](=O)[O-])c2)CC1 (centres unmarked) [I21] | – |
| I23 ** (100 nM) | COc1cccc(N(C(C)CCN2CCC(C)CC2)S(=O)(=O)c2cccc([N+](=O)[O-])c2)c1 (centres unmarked) [I23] | – |
| I24 *** (10 nM) | CC1CCN(CCC(C)N(c2cccc3ccccc23)S(=O)(=O)c2cccc([N+](=O)[O-])c2)CC1 (centres unmarked) [I24] | – |
| J20 *** (10 nM) | Cc1ccc(N(C(C)CCN2CCC(C)CC2)S(=O)(=O)c2ccc(-c3ccccc3)cc2)cc1 (centres unmarked) [J20] | Tail suspension (mice [1]; 1 mg/kg): 130 ± 11 s; Tail suspension (mice [1]; 5 mg/kg): 92 ± 9 s; IC50 (5-HT7 receptor): 61 nM; Forced swim test (mice [2]; 1 mg/kg): 42 ± 6 s; Forced swim test (mice [2]; 5 mg/kg): 28 ± 4 s |
| J23 *** (10 nM) | COc1cccc(N(C(C)CCN2CCC(C)CC2)S(=O)(=O)c2ccc(-c3ccccc3)cc2)c1 (centres unmarked) [J23] | IC50 (5-HT7 receptor): 39 nM |
| M9 * (1 micromolar) | CC1CCN(CCC(C)N(CCN(C)C)S(=O)(=O)c2ccc(Br)cc2)CC1 (centres unmarked) [M9] | – |
| N3 ** (100 nM) | COCCN(C(C)CCN1CCC(C)CC1)S(=O)(=O)c1cccc(C(F)(F)F)c1 (centres unmarked) [N3] | – |
| N16 ** (100 nM) | COc1ccccc1N(C(C)CCN1CCC(C)CC1)S(=O)(=O)c1cccc(C(F)(F)F)c1 (centres unmarked) [N16] | – |
| N20 ** (100 nM) | Cc1ccc(N(C(C)CCN2CCC(C)CC2)S(=O)(=O)c2cccc(C(F)(F)F)c2)cc1 (centres unmarked) [N20] | – |
| O24 *** (10 nM) | COc1ccc(S(=O)(=O)N(c2cccc3ccccc23)C(C)CCN2CCC(C)CC2)cc1OC (centres unmarked) [O24] | Tail suspension (mice [1]; 1 mg/kg): 81 ± 8 s; Tail suspension (mice [1]; 5 mg/kg): 74 ± 9 s; IC50 (5-HT7 receptor): 83 nM; Forced swim test (mice [2]; 1 mg/kg): 69 ± 7 s; Forced swim test (mice [2]; 5 mg/kg): 51 ± 11 s |
